Assay results: US11325896B2, “Antagonists of the muscarinic acetylcholine receptor M4” (Vanderbilt University, priority 2017, dated 2022)

Molecular target: T1, human mAChR M4 (Homo sapiens, UniProt P08173)
T1 construct: expressed in transfected cells; host or cells: CHO-K1 (ATCC), stably co-expressing the chimeric G protein Gqi5
T1 sequence (P08173 1-479): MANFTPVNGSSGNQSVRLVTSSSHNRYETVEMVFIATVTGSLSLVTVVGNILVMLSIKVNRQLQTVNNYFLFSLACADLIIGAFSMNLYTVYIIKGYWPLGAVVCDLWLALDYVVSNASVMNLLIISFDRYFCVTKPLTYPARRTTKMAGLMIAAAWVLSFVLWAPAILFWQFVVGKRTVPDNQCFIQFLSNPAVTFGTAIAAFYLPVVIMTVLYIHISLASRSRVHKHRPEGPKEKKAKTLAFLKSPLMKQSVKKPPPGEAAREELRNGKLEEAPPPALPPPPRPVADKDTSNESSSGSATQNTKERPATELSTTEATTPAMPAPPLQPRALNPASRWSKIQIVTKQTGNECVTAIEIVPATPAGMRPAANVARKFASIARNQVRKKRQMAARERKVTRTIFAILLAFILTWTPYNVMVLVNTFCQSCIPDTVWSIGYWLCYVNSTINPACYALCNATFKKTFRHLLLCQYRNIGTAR
Experiment: mAChR M4 cell-based functional assay (calcium flux, decrease of EC80 acetylcholine response)
Conditions: for remaining activity at 30 µM: % ACh maximum at 30 μM, human M4, read-out: Emin; for IC50: M4/Gqi5/CHO-K1 cells, decrease of response to EC80 acetylcholine
Method: Human or rat M4 cDNA, along with the chimeric G protein Gqi5, were transfected into Chinese hamster ovary (CHO-K1) cells purchased from the American Type Culture Collection using Lipofectamine2000. M4/Gqi5/CHO cells were grown in Ham's F-12 medium containing 10% heat-inactivated fetal bovine serum (FBS), 20 mM HEPES, 500 μg/mL G418 sulfate, and 200 μg/mL Hygromycin B.
For high throughput measurement of agonist-evoked increases in intracellular calcium, CHO-K1 cells stably expressing muscarinic receptors were plated in growth medium lacking G418 and hygromycin at 15,000 cells/20 μL/well in Greiner 384-well black-walled, tissue culture (TC)-treated, clear-bottom plates (VWR). Cells were incubated overnight at 37° C. and 5% CO2. The next day, cells were washed using an ELX 405 (BioTek) with assay buffer: the final volume was then aspirated to 20 μL. Next, 20 μL of a 2.3 μM stock of Fluo-4/acetoxymethyl ester (Invitrogen, Carlsbad, Calif.), prepared as a 2.3 mM stock in DMSO and mixed in a 1:1 ratio with 10% (w/v) Pluronic F-127 and diluted in assay buffer, was added to the wells and the cell plates were incubated for 50 min at 37° C. and 5% CO2. Dye was removed by washing with the ELX 405 and the final volume was aspirated to 20 μL. Compound master plates were formatted in a 10 point concentration-response curve (CRC) format (1:3 dilutions) in 100% DMSO with a starting concentration of 10 or 1 mM using a BRAVO liquid handler (Agilent). Test compound CRCs were then transferred to daughter plates (240 nL) using the Echo acoustic plate reformatter (Labcyte, Sunnyvale, Calif.) and then diluted into assay buffer (40 μL) to a 2× stock using a Thermo Fisher Combi (Thermo Fisher Scientific, Waltham, Mass.).
Calcium flux was measured using the Functional Drug Screening System (FDSS) 6000 or 7000 (Hamamatsu Corporation, Tokyo, Japan) as an increase in the fluorescent static ratio. Compounds were applied to cells (20 μL, 2×) using the automated system of the FDSS at 2 seconds into the protocol and the data were collected at 1 Hz. At 143 s, 10 μL of an EC20 concentration of the muscarinic receptor agonist acetylcholine was added (5×), followed by the addition of 12 μL of an EC80 concentration of acetylcholine at the 268 s time point (5×). Agonist activity was analyzed as a concentration-dependent increase in calcium mobilization upon compound addition. Positive allosteric modulator activity was analyzed as a concentration-dependent increase in the EC20 acetylcholine response. Antagonist activity was analyzed as a concentration-dependent decrease in the EC80 acetylcholine response; for the purposes of the tables herein, an IC50 (inhibitory concentration 50) was calculated as a concentration-dependent decrease of the response elicited by an EC80 concentration of acetylcholine. Concentration-response curves were generated using a four-parameter logistical equation in XLFit curve fitting software (IDBS, Bridgewater, N.J.) for Excel (Microsoft, Redmond, Wash.) or Prism (GraphPad Software, Inc., San Diego, Calif.) or the Dotmatics software platform (Dotmatics, Bishop's Stortford, UK).
Compounds were synthesized as described above. Activity (IC50 and Emin) was determined in the mAChR M4 cell-based functional assay as described above and the data are shown in Table 4. The compound numbers correspond to those used in Examples 1-4 and Tables 1-3.

Row | remaining activity at 30 µM | IC50 | SMILES
1 | 9.8% | 1310 nM | CC(=O)Nc1ccc(-c2ccc(NC3CC4(C3)CN(CCC(C)(C)C)C4)nn2)cc1 [Compound 1, N-(4-(6-((2-(3,3-Dimethylbutyl)-2-azaspiro[3.3]heptan-6-yl)amino)pyridazin-3-yl)phenyl)acetamide]
2 | 46.5% | 10000 nM | Cc1nn(C)cc1-c1ccc(NC2CC3(C2)CN(CC2CCOCC2)C3)nn1 [Compound 2, N-(6-(1,3-dimethyl-1H-1-pyrazol-4-yl)pyridazin-3-yl)-2-((tetrahydro-2H-pyran-4-yl)methyl)-2-azaspiro[3.3]heptan-6-amine]
3 | 4% | 100 nM | Fc1ccc(Cl)c(-c2ccc(NC3CC4(C3)CN(CC3CC5C=CC3C5)C4)nn2)c1 (centres unmarked) [Compound 3, 2-(bicyclo[2.2.1]hept-5-en-2-ylmethyl)-N-(6-(2-chloro-5-fluorophenyl)pyridazin-3-yl)-2-azaspiro[3.3]heptan-6-amine]
4 | 2.8% | 160 nM | CC(C)(C)CCN1CC2(CC(Nc3ccc(-c4cc(F)ccc4Cl)nn3)C2)C1 [Compound 4, N-(6-(2-chloro-5-fluorophenyl)pyridazin-3-yl)-2-(3,3-dimethylbutyl)-2-azaspiro[3.3]heptan-6-amine]
5 | 3.1% | 210 nM | Fc1ccc(Cl)c(-c2ccc(NC3CC4(C3)CN(CC3CCCCC3)C4)nn2)c1 [Compound 5, N-(6-(2-chloro-5-fluorophenyl)pyridazin-3-yl)-2-(cyclohexylmethyl)-2-azaspiro[3.3]heptan-6-amine]
6 | 5.4% | 2480 nM | Fc1ccc(Cl)c(-c2ccc(NC3CC4(C3)CN(CC3CCCOC3)C4)nn2)c1 (centres unmarked) [Compound 6, N-(6-(2-chloro-5-fluorophenyl)pyridazin-3-yl)-2-((tetrahydro-2H-pyran-3-yl)methyl)-2-azaspiro[3.3]heptan-6-amine]
7 | 7.8% | 2270 nM | Fc1ccc(Cl)c(-c2ccc(NC3CC4(C3)CN(CC3CCOCC3)C4)nn2)c1 [Compound 7, N-(6-(2-chloro-5-fluorophenyl)pyridazin-3-yl)-2-((tetrahydro-2H-pyran-4-yl)methyl)-2-azaspiro[3,3]heptan-6-amine]
8 | 3.8% | 150 nM | Fc1ccc(Cl)c(-c2ccc(NC3CC4(C3)CN(CC35CC6CC(CC(C6)C3)C5)C4)nn2)c1 [Compound 8, 2-(adamantan-1-ylmethyl)-N-(6-(2-chloro-5-fluorophenyl)pyridazin-3-yl)-2-azaspiro[3.3]heptan-6-amine]
9 | 12.4% | 2890 nM | Cc1nn(C)cc1-c1ccc(NC2CC3(C2)CN(CCC(C)(C)C)C3)nn1 [Compound 9, N-(6-(1,3-dimethyl-1H-pyrazol-4-yl)pyridazin-3-yl)-2-(3,3-dimethylbutyl)-2-azaspiro[3.3]heptan-6-amine]
10 | 6.5% | 1350 nM | Cc1cnn(C)c1-c1ccc(NCC2CC3(C2)CN(CCC(C)(C)C)C3)nn1 [Compound 11, 6-(1,4-Dimethyl-1H-pyrazol-5-yl)-N-((2-(3,3-dimethylbutyl)-2-azaspiro[3.3]heptan-6-yl)methyl)pyridazin-3-amine]
11 | 3.6% | 700 nM | Cc1nn(C)cc1-c1ccc(NCC2CC3(C2)CN(CC2CC4C=CC2C4)C3)nn1 (centres unmarked) [Compound 12, N-((2-(bicyclo[2.2.1]hept-5-en-2-ylmethyl)-2-azaspiro[3.3]heptan-6-yl)methyl)-6-(1,3-dimethyl-1H-pyrazol-4-yl)pyridazin-3-amine]
12 | 6.1% | 1530 nM | Cc1nn(C)cc1-c1ccc(NCC2CC3(C2)CN(CC(C)C(C)(C)C)C3)nn1 (centres unmarked) [Compound 13, 6-(1,3-dimethyl-1H-pyrazol-4-yl)-N-((2-(2,3,3-trimethylbutyl)-2-azaspiro[3.3]heptan-6-yl)methyl)pyridazin-3-amine]
13 | 2.6% | 59 nM | Fc1ccc(Cl)c(-c2ccc(NCC3CC4(C3)CN(CC3CC5C=CC3C5)C4)nn2)c1 (centres unmarked) [Compound 14, N-((2-(bicyclo[2.2.1]hept-5-en-2-ylmethyl)-2-azaspiro[3.3]heptan-6-yl)methyl)-6-(2-chloro-5-fluorophenyl)pyridazin-3-amine]
14 | 7.5% | 1490 nM | Cc1nn(C)cc1-c1ccc(NCC2CC3(C2)CN(CCC(C)(C)C)C3)nn1 [Compound 15, 6-(1,3-dimethyl-1H-pyrazol-4-yl)-N-((2-(3,3-dimethylbutyl)-2-azaspiro[3.3]heptan-6-yl)methyl)pyridazin-3-amine]
15 | 13.5% | 4140 nM | Cc1nn(C)cc1-c1ccc(NCC2CC3(C2)CN(CC2CCCCC2)C3)nn1 [Compound 16, N-((2-(cyclohexylmethyl)-2-azaspiro[3.3]heptan-6-yl)methyl)-6-(1,3-dimethyl-1H-pyrazol-4-yl)pyridazin-3-amine]
16 | 7.8% | 2200 nM | CC(=O)Nc1ccc(-c2ccc(NCC3CC4(C3)CN(CCC(C)(C)C)C4)nn2)cc1 [Compound 17, N-(4-(6-(((2-(3,3-dimethylbutyl)-2-azaspiro[3.3]heptan-6-yl)methyl)amino)pyridazin-3-yl)phenyl)acetamide]
17 | 8.1% | 1550 nM | CC(=O)Nc1ccc(-c2ccc(NCC3CC4(C3)CN(CC3CC5C=CC3C5)C4)nn2)cc1 (centres unmarked) [Compound 18, N-(4-(6-(((2-(bicyclo[2.2.1]hept-5-en-2-ylmethyl)-2-azaspiro[3.3]heptan-6-yl)methyl)amino)pyridazin-3-yl)phenyl)acetamide]
18 | 20.5% | 8140 nM | CC(=O)Nc1ccc(-c2ccc(NCC3CC4(C3)CN(CC3CCCCC3)C4)nn2)cc1 [Compound 19, N-(4-(6-(((2-(cyclohexylmethyl)-2-azaspiro[3.3]heptan-6-yl)methyl)amino)pyridazin-3-yl)phenyl)acetamide]
19 | 8.6% | 2340 nM | Cc1nn(C)cc1-c1ccc(OCC2CC3(C2)CN(CC2CCCCC2)C3)nn1 [Compound 21, 2-(Cyclohexylmethyl)-6-(((6-(1,3-dimethyl-1H-pyrazol-4-yl)pyridazin-3-yl)oxy)methyl)-2-azaspiro[3.3]heptane]
20 | 4.6% | 1380 nM | Cc1nn(C)cc1-c1ccc(OCC2CC3(C2)CN(CCC(C)(C)C)C3)nn1 [Compound 22, 6-(((6-(1,3-dimethyl-1H-pyrazol-4-yl)pyridazin-3-yl)oxy)methyl)-2-(3,3-dimethylbutyl)-2-azaspiro[3.3]heptane]
21 | 3.7% | 680 nM | Cc1nn(C)cc1-c1ccc(OCC2CC3(C2)CN(CC2CC4C=CC2C4)C3)nn1 (centres unmarked) [Compound 23, 2-(bicyclo[2.2.1]hept-5-en-2-ylmethyl)-6-(((6-(1,3-dimethyl-1H-pyrazol-4-yl)pyridazin-3-yl)oxy)methyl)-2-azaspiro[3.3]heptane]

Row | SMILES | remaining activity at 30 µM | IC50
22 | CC(C)(C)CCN1CC2(C1)CC1(CC1CNc1ccc(Cl)nn1)C2 (centres unmarked) [Compound 20, 6-Chloro-N-((7-(3,3-dimethylbutyl)-7-azadispiro[2.1.3^5.1^3]nonan-1-yl)methyl)pyridazin-3-amine] | 4.9% | 450 nM
